In patent publication US10874743B2, “IRAK degraders and uses thereof” (Kymera Therapeutics, Inc., priority 2017, dated 2020):

Target: T1, IRAK4 (Homo sapiens, UniProt Q9NWZ3)
T1 sequence (Q9NWZ3 1-460): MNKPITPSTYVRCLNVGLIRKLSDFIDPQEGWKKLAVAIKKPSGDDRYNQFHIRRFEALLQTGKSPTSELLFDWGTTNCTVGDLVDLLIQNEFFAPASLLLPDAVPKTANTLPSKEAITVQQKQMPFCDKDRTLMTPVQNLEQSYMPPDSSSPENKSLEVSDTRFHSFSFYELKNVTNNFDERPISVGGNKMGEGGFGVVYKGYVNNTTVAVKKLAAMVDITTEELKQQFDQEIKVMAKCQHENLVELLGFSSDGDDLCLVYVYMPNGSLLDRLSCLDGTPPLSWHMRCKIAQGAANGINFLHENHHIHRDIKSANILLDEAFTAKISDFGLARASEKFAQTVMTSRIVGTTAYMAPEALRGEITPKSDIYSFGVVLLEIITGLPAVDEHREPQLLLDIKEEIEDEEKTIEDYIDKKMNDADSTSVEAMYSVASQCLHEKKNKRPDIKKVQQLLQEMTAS
Test: OCI-LY-10 degradation assay (western blot, % IRAK4 degraded after 4 hours)
Format: cell-based
Parameters: endogenous in cells; host or cells: OCI-LY10
Conditions: OCI-LY10 cells, IRAK4 degraded after 4 hours, western blot
Procedure: Compounds were reconstituted in DMSO to make stock solutions at concentration of 60 mM. THP-1 and OCI-LY10 cells were maintained in RPMI-1640 medium containing 10% FBS, 0.5 μM 2-ME or 20% FBS, 55 μM 2-ME, and 1% L-Glutamine respectively.
Cells were seeded into 6-well plates with 5e6 cells per well. 200 μL of diluted compounds were added to cells to the final concentration of 0.003-10 μM. After 4 or 24 hour-incubation at 37° C., cells were collected into 2 mL Eppendorf tubes and centrifuged at 1,000 rpm for 5 min. The cell pellets were washed with 1×DPBS once and resuspended in 60 μL lysis buffer. The cells were lysed on ice for 10 min, then centrifuged at 14,000 rpm for 10 min at 4° C. and the supernatants were collected for western blots. For THP-1 cells, the lysis buffer contained 40 mM pH 7.4 HEPES, 140 mM NaCl, 2.5 mM EDTA, 1% NP-40, 0.1% SDS, and protease inhibitor cocktail (Roche, Cat. No. 05892791001). For OCI-LY10 cells, RIPAbuffer (Thermo Fisher, 89900) with Halt Protease and Phosphatase Inhibitor Cocktail (Thermo Fisher, 78446) was applied.
The protein concentration of cell lysates was quantified with Pierce™ BCA Protein Assay Kit (Pierce, 23227). Albumin standards at different concentrations were prepared, involving 2,000 ug/mL, 1,500 ug/mL, 1,000 ug/mL, 750 ug/mL, 500 ug/mL, 250 ug/mL, 125 ug/mL, and 25 ug/mL. BCA working reagents were prepared by mixing BCA reagent A with reagent B in 50:1 ratio. 200 μL of the BCA working reagents were added to 25 μL of BCA standard or cell lysates in microplate, and mixed thoroughly on a plate shaker for 30 seconds. After incubation at 37° C. for 30 min, the absorbance of samples at 562 nm were measured with EnVision Plate Reader.
Protein lysates were prepared in NuPAGE™ LDS sample buffer and NuPAGE™ sample reducing agent, and incubated at 95° C. for 5 min. For western blots, 20-25 μg of total proteins were resolved in 4-12% Bis-Tris gels (Introgen, WG1403A) or 10% Bis-Tris Midi gels (Invitrogen, WG1202BOX) running with 1×MOPS SDS running buffer (Invitrogen, NP0001) or 1×MES SDS running buffer (Invitrogen, NP0002). The proteins were transferred to low fluorescence PVDF membranes using the Trans-Blot Turbo Transfer System. Membranes were then blocked in Odyssey blocking buffer at RT for 1 h followed by primary incubation at 4° C. overnight. The primary antibodies were IRAK1 rabbit monoclonal antibody (CST, #4504S, 1:500), IRAK3 rabbit polyclonal antibody (CST, #4369, 1:500), IRAK4 rabbit polyclonal antibody (CST, #4363S, 1:1,000), MyD88 rabbit monoclonal antibody (Abcam, Ab133739, 1:2,000), j3-actin mouse monoclonal antibody (Sigma, A5441, 10,000), and Gapdh mouse monoclonal antibody (Millipore, MAB374, 1:5,000). Membranes were washed three times with 1×TBST, and then incubated with IR Dye 800 CW Goat anti-rabbit (Licor, #926-32211) and IR Dye 700 CW Goat anti-mouse (Licor, #926-68070) secondary antibodies in 1:10,000 dilution at RT for 1 h. The western blot images were obtained using Odyssey Imaging System.
OCI-LY-10 results at 4 hours. The letter codes indicate the percentage of IRAK4 degraded after 4 hours: A (>50% degradation), B (>20-50% degradation) and C (<20% degradation)
OCI-LY-10 results at 4 hours. The letter codes for % IRAK4 degradation indicate the percentage of IRAK4 degraded after 4 hours across three different concentrations: A (>50% degradation), B (>20-50% degradation) and C (<20% degradation).

| OCI-LY10 % IRAK4 Degradation | Structure (SMILES) |
| --- | --- |
| C (<20% degradation) | CC(C)(OCCOCCOCCNc1cccc2c1C(=O)N(C1CCC(=O)NC1=O)C2=O)C(F)CNC(=O)c1cnc(Nc2ccc3cnccc3n2)cc1NC1CC1 (stereo not drawn) [I-56] |
| C (<20% degradation) | CC(C)(OCCOCCOCCOCCOCCNc1cccc2c1C(=O)N(C1CCC(=O)NC1=O)C2=O)C(F)CNC(=O)c1cnc(-n2ncc3cc(C#N)cnc32)cc1NC1CC1 (stereo not drawn) [I-60] |
| C (<20% degradation) | O=C1CCC(N2C(=O)c3cccc(NCCOCCOCC(F)CNC(=O)c4cnc(Nc5ccc6cnccc6n5)cc4NC4CC4)c3C2=O)C(=O)N1 (stereo not drawn) [I-61] |
| C (<20% degradation) | CC(OCCOCCOCCNc1cccc2c1C(=O)N(C1CCC(=O)NC1=O)C2=O)C(F)CNC(=O)c1cnc(Nc2ccc3cnccc3n2)cc1NC1CC1 (stereo not drawn) [I-62] |
| C (<20% degradation) | CC(C)(OCCOCCOCCOCCOCCNc1cccc2c1C(=O)N(C1CCC(=O)NC1=O)C2=O)C(F)CNC(=O)c1cnc(Nc2ccc3cnccc3n2)cc1NC1CC1 (stereo not drawn) [I-64] |
| C (<20% degradation) | CC(C)(OCCOCCOCCNc1cccc2c1C(=O)N(C1CCC(=O)NC1=O)C2=O)C(F)CNC(=O)c1cnc(Nc2ccc3ncsc3c2)cc1NC1CC1 (stereo not drawn) [I-65] |
| C (<20% degradation) | CC(C)(OCCOCCOCCOCCOCCNc1cccc2c1C(=O)N(C1CCC(=O)NC1=O)C2=O)C(F)CNC(=O)c1cnc(Nc2ccc3ncsc3c2)cc1NC1CC1 (stereo not drawn) [I-68] |
| C (<20% degradation) | CC(C)(OCCOCCOCCOCCOCCNc1cccc2c1C(=O)N(C1CCC(=O)NC1=O)C2=O)C(F)CNC(=O)c1cnc(Nc2ncc(C#N)cc2F)cc1NC1CC1 (stereo not drawn) [I-69] |
| C (<20% degradation) | CC(COCC(F)CNC(=O)c1cnc(Nc2ccc3cnccc3n2)cc1NC1CC1)OCCOCCNc1cccc2c1C(=O)N(C1CCC(=O)NC1=O)C2=O (stereo not drawn) [I-70] |
| C (<20% degradation) | CC(C)(OCCOCCOCCOCCNc1cccc2c1C(=O)N(C1CCC(=O)NC1=O)C2=O)C(F)CNC(=O)c1cnc(-n2ncc3cc(C#N)cnc32)cc1NC1CC1 (stereo not drawn) [I-73] |
| C (<20% degradation) | CC(C)(OCCNc1cccc2c1C(=O)N(C1CCC(=O)NC1=O)C2=O)C(F)CNC(=O)c1cnc(Nc2ccc3cnccc3n2)cc1NC1CC1 (stereo not drawn) [I-74] |
| C (<20% degradation) | CC(C)(OCCOCCNc1cccc2c1C(=O)N(C1CCC(=O)NC1=O)C2=O)C(F)CNC(=O)c1cnc(Nc2ccc3cnccc3n2)cc1NC1CC1 (stereo not drawn) [I-80] |
| C (<20% degradation) | O=C1CCC(N2C(=O)c3cccc(NCCOCC(F)CNC(=O)c4cnc(Nc5ccc6cnccc6n5)cc4NC4CC4)c3C2=O)C(=O)N1 (stereo not drawn) [I-81] |

The next lines start with the compound.

| Structure (SMILES) | OCI-LY10 % IRAK4 Degradation |
| --- | --- |
| N#Cc1cnc2c(cnn2-c2cc(NC3CC3)c(C(=O)N[C@H]3CC[C@H](C(=O)NCCOCCNCCOCCOCCNc4cccc5c4C(=O)N(C4CCC(=O)NC4=O)C5=O)CC3)cn2)c1 (stereo partly drawn) [I-45, 6-(5-cyano-1H-pyrazolo[3,4-b]pyridin-1-yl)-4-(cyclopropylamino)-N-((1R,4R)-4-((14-((2-(2,6-dioxopiperidin-3-yl)-1,3-dioxoisoindolin-4-yl)amino)-3,9,12-trioxa-6-azatetradecyl)carbamoyl)cyclohexyl)nicotinamide] | C (<20% degradation) |
| N#Cc1cnc2c(cnn2-c2cc(NC3CC3)c(C(=O)NCC(F)COCCOCCOCCNc3cccc4c3C(=O)N(C3CCC(=O)NC3=O)C4=O)cn2)c1 (stereo not drawn) [I-46, 6-(5-Cyanopyrazolo[3,4-b]pyridin-1-yl)-4-(cyclopropylamino)-N-[3-[2-[2-[2-[[2-(2,6-dioxo-3-piperidyl)-1,3-dioxo-isoindolin-4-yl]amino]ethoxy]ethoxy]ethoxy]-2-fluoro-propyl]pyridine-3-carboxamide] | C (<20% degradation) |
| O=C1CCC(N2C(=O)c3cccc(NCCOCCOCCOCC(F)CNC(=O)c4cnc(Nc5ccc6ncsc6c5)cc4NC4CC4)c3C2=O)C(=O)N1 (stereo not drawn) [I-54] | C (<20% degradation) |
| N#Cc1cnc2c(cnn2-c2cc(NC3CC3)c(C(=O)NCC(F)COCCOCCOCCOCCOCCNc3cccc4c3C(=O)N(C3CCC(=O)NC3=O)C4=O)cn2)c1 (stereo not drawn) [I-57] | C (<20% degradation) |
| CC(C)(OCCOCCOCCNc1cccc2c1C(=O)N(C1CCC(=O)NC1=O)C2=O)C(F)CNC(=O)c1cnc(-n2ncc3cc(C#N)cnc32)cc1NC1CC1 (stereo not drawn) [I-59] | C (<20% degradation) |
| CC(OCCOCCOCCNc1cccc2c1C(=O)N(C1CCC(=O)NC1=O)C2=O)C(F)CNC(=O)c1cnc(-n2ncc3cc(C#N)cnc32)cc1NC1CC1 (stereo not drawn) [I-63] | C (<20% degradation) |
| CC(OCCOCCOCCOCCOCCNc1cccc2c1C(=O)N(C1CCC(=O)NC1=O)C2=O)C(F)CNC(=O)c1cnc(-n2ncc3cc(C#N)cnc32)cc1NC1CC1 (stereo not drawn) [I-66] | C (<20% degradation) |
| CC(C)(OCCOCCOCCNc1cccc2c1C(=O)N(C1CCC(=O)NC1=O)C2=O)C(F)CNC(=O)c1cnc(Nc2ncc(C#N)cc2F)cc1NC1CC1 (stereo not drawn) [I-67] | C (<20% degradation) |
| CC(OCCOCCOCCOCCNc1cccc2c1C(=O)N(C1CCC(=O)NC1=O)C2=O)C(F)CNC(=O)c1cnc(-n2ncc3cc(C#N)cnc32)cc1NC1CC1 (stereo not drawn) [I-71] | C (<20% degradation) |
| N#Cc1cnc2c(cnn2-c2cc(NC3CC3)c(C(=O)NCC(F)COCCOCCOCCOCCNc3cccc4c3C(=O)N(C3CCC(=O)NC3=O)C4=O)cn2)c1 (stereo not drawn) [I-72] | C (<20% degradation) |
| CC(C)(OCCNc1cccc2c1C(=O)N(C1CCC(=O)NC1=O)C2=O)C(F)CNC(=O)c1cnc(-n2ncc3cc(C#N)cnc32)cc1NC1CC1 (stereo not drawn) [I-75] | C (<20% degradation) |
| N#Cc1cnc2c(cnn2-c2cc(NC3CC3)c(C(=O)NCC(F)COCCOCCNc3cccc4c3C(=O)N(C3CCC(=O)NC3=O)C4=O)cn2)c1 (stereo not drawn) [I-76] | C (<20% degradation) |
| CC(OCCNc1cccc2c1C(=O)N(C1CCC(=O)NC1=O)C2=O)C(F)CNC(=O)c1cnc(Nc2ccc3cnccc3n2)cc1NC1CC1 (stereo not drawn) [I-77] | C (<20% degradation) |
| CC[C@@H]1[C@H](F)C(=O)N[C@@H]1COc1nccc2cc(C(=O)NCCOCCOCCOCCOCCNc3cccc4c3C(=O)N(C3CCC(=O)NC3=O)C4=O)c(OC)cc12 (stereo partly drawn) [I-78] | C (<20% degradation) |
| CC(C)(OCCOCCNc1cccc2c1C(=O)N(C1CCC(=O)NC1=O)C2=O)C(F)CNC(=O)c1cnc(-n2ncc3cc(C#N)cnc32)cc1NC1CC1 (stereo not drawn) [I-79] | C (<20% degradation) |
| N#Cc1cnc2c(cnn2-c2cc(NC3CC3)c(C(=O)NCC(F)COCCNc3cccc4c3C(=O)N(C3CCC(=O)NC3=O)C4=O)cn2)c1 (stereo not drawn) [I-82] | C (<20% degradation) |
| CC(OCCNc1cccc2c1C(=O)N(C1CCC(=O)NC1=O)C2=O)C(F)CNC(=O)c1cnc(-n2ncc3cc(C#N)cnc32)cc1NC1CC1 (stereo not drawn) [I-83] | C (<20% degradation) |
